Source: US20120087864A1, “METHOD FOR DIAGNOSING AND/OR EVALUATING RETINAL DISEASE” (R-TECH UENO, LTD., priority 2010, published 2012)
“And” between values parts separate entries of the source, which are not always exact repeats. Equal values may be shown once.

Experiments:
[1] = system: patient with retinal pigmentosa; assay: Safety evaluation: side effects until completion of medication (24 weeks); assay type: in vivo, human
Source text: Safety evaluation (1. Adverse event, 2. Side effect, 3. Ophthalmologic examination, Vital signs, Clinical examination result)
A list of items of the side effect confirmed until completion of medication (24 weeks) in Test Example 1, and the number of appearance cases and the appearance ratio of the side effect of each group are shown in Table 10.

[2] = system: patient with retinal pigmentosa; assay: Distribution of MP-1 central 2 degrees retinal sensitivity change by concentration of metabolite A in plasma (LC/MS/MS); assay type: in vivo, human; details: instillation group
Procedure: Concentration of drug in plasma (20 week after the initiation of test drug administration, the concentration of the drug in plasma after 15 minutes had passed since instillation of the second drop). Evaluate items: The concentration of isopropyl unoprostone and its metabolite A (free carboxylic acid of isopropyl unoprostone in plasma was measured.)
Twenty weeks after the initiation of the test drug administration in Test Example 1, the concentration of the drug in plasma was measured after 15 minutes had passed since instillation of the second drop.
Evaluation item: concentration of metabolite A (free carboxylic acid of isopropyl unoprostone) in plasma Measuring method: Twenty weeks after initiation of test drug administration, samples were obtained by drawing 4 ml of blood per time after 15 minutes had passed since instillation of the second drop, and then the concentration of the metabolite A in plasma was measured by liquid chromatogram/Tandem mass spectrometer (LC/MS/MS) using a portion of the measuring samples. Measuring apparatus: liquid chromatograph/Tandem mass spectrometer (LC/MS/MS) [High-performance liquid chromatography system (SHIMADZU 20A, manufactured by Shimadzu Corporation) Analysis column: Develosil ODS-UG-3 (2.0 mm I.D.×50 mm, 3 μm, manufactured by Nomura Chemical Co., Ltd.) Column temperature: 35° C. Injection amount: 20 μL Mobile phase A: acetonitrile/10 mmol/L ammonium acetate solution/acetic acid (20:80:0.1, v/v/v) Mobile phase B: acetonitrile/acetic acid (100:0.1, v/v) Needle wash: Methanol Flow rate: 0.25 mL/minute Mass spectrometry (API 4000, manufactured by Applied Biosystems)] Ionization method: ESI method (Turbo ion spray, 350° C.) […] Internal standard substance: 17,20-dimethyl PGF1α
In order to evaluate a correlation of the change value (24 weeks) of average retinal sensitivity by MP-1 in central 2 degrees (4 points) with the concentration of metabolite A in plasma of the isopropyl unoprostone instillation group, when the change value (24 weeks) of average retinal sensitivity by MP-1 in central 2 degrees (4 points) was a positive value, it was classified as “improvement”. In contrast, when the change value was zero and a negative value, it was classified as “non-improvement”. Furthermore, each concentration of metabolite A in plasma (1 ng/mL, 2 ng/mL, 2.5 ng/mL and 3 ng/mL) was regarded as a boundary concentration, distribution of the change value (24 weeks) by MP-1 in central 2 degrees (4 points) average retinal sensitivity was confirmed.

[3] = metabolite A in plasma 1.0 ng/mL or more
[4] = metabolite A in plasma 2.0 ng/mL or more
[5] = metabolite A in plasma 2.5 ng/mL or more
[6] = metabolite A in plasma 3.0 ng/mL or more
[7] = metabolite A in plasma less than 1.0 ng/mL
[8] = metabolite A in plasma less than 2.0 ng/mL
[9] = metabolite A in plasma less than 2.5 ng/mL
[10] = metabolite A in plasma less than 3.0 ng/mL

**Q.** What does the source list for `CCCCCCCC(=O)CC[C@@H]1[C@@H](C/C=C\CCCC(=O)OC(C)C)[C@@H](O)C[C@H]1O` [isopropyl unoprostone, (+)-isopropyl (Z)-7-[(1R,2R,3R,5S)-3,5-dihydroxy-2-(3-oxodecyl)cyclopentyl]hept-5-enoate]?
**A.** serious side effect ([1]; any group (one drop and two drops per time)): no serious side effect; All side effects, number of appearance cases ([1]; one drop per time (39 cases)): 28 (71.8%) cases (%) and 28 (71.8) cases (%); Bloodshot eyes, number of appearance cases ([1]; one drop per time (39 cases)): 1 (2.6) cases (%); Bloodshot, number of appearance cases ([1]; one drop per time (39 cases)): 0 (0.0) cases (%); Dry eye, number of appearance cases ([1]; one drop per time (39 cases)): 1 (2.6) cases (%); Eye abnormality, number of appearance cases ([1]; one drop per time (39 cases)): 0 (0.0) cases (%); Eye irritation, number of appearance cases ([1]; one drop per time (39 cases)): 9 (23.1) cases (%); Eye pruritus, number of appearance cases ([1]; one drop per time (39 cases)): 1 (2.6) cases (%); Eye swelling, number of appearance cases ([1]; one drop per time (39 cases)): 1 (2.6) cases (%); Foreign body sensation, number of appearance cases ([1]; one drop per time (39 cases)): 1 (2.6) cases (%); Hypertrichosis, number of appearance cases ([1]; one drop per time (39 cases)): 0 (0.0) cases (%); Irritation of applied site, number of appearance cases ([1]; one drop per time (39 cases)): 13 (33.3) cases (%); Macular edema, number of appearance cases ([1]; one drop per time (39 cases)): 1 (2.6) cases (%); Macular hole, number of appearance cases ([1]; one drop per time (39 cases)): 0 (0.0) cases (%); Punctate keratitis, number of appearance cases ([1]; one drop per time (39 cases)): 4 (10.3) cases (%); All side effects, number of appearance cases ([1]; two drops per time (38 cases)): 21 (55.3%) cases (%) and 21 (55.3) cases (%); Bloodshot eyes, number of appearance cases ([1]; two drops per time (38 cases)): 0 (0.0) cases (%); Bloodshot, number of appearance cases ([1]; two drops per time (38 cases)): 1 (2.6) cases (%); Dry eye, number of appearance cases ([1]; two drops per time (38 cases)): 0 (0.0) cases (%); Eye abnormality, number of appearance cases ([1]; two drops per time (38 cases)): 1 (2.6) cases (%); Eye irritation, number of appearance cases ([1]; two drops per time (38 cases)): 4 (10.5) cases (%); Eye pruritus, number of appearance cases ([1]; two drops per time (38 cases)): 1 (2.6) cases (%); Eye swelling, number of appearance cases ([1]; two drops per time (38 cases)): 0 (0.0) cases (%); Foreign body sensation, number of appearance cases ([1]; two drops per time (38 cases)): 0 (0.0) cases (%); Hypertrichosis, number of appearance cases ([1]; two drops per time (38 cases)): 1 (2.6) cases (%); Irritation of applied site, number of appearance cases ([1]; two drops per time (38 cases)): 13 (34.2) cases (%); Macular edema, number of appearance cases ([1]; two drops per time (38 cases)): 0 (0.0) cases (%); Macular hole, number of appearance cases ([1]; two drops per time (38 cases)): 0 (0.0) cases (%); Punctate keratitis, number of appearance cases ([1]; two drops per time (38 cases)): 4 (10.5) cases (%); number of improved cases (MP-1 central 2 degrees change value, 24 weeks, positive) [2, 3]: 33; number of non-improved cases [2, 3]: 18; ratio of improved cases [2, 3]: (64.7%); ratio of non-improved cases [2, 3]: (35.3%); number of improved cases (MP-1 central 2 degrees change value, 24 weeks, positive) [2, 4]: 16; number of non-improved cases [2, 4]: 8; ratio of improved cases [2, 4]: (66.7%); ratio of non-improved cases [2, 4]: (33.3%); number of improved cases (MP-1 central 2 degrees change value, 24 weeks, positive) [2, 5]: 12; number of non-improved cases [2, 5]: 2; ratio of improved cases [2, 5]: (85.7%); ratio of non-improved cases [2, 5]: (14.3%); number of improved cases (MP-1 central 2 degrees change value, 24 weeks, positive) [2, 6]: 9; number of non-improved cases [2, 6]: 1; ratio of improved cases [2, 6]: (90.0%); ratio of non-improved cases [2, 6]: (10.0%); number of improved cases (MP-1 central 2 degrees change value, 24 weeks, positive) [2, 7]: 11; number of non-improved cases [2, 7]: 11; ratio of improved cases [2, 7]: (50.0%); ratio of non-improved cases [2, 7]: (50.0%); number of improved cases (MP-1 central 2 degrees change value, 24 weeks, positive) [2, 8]: 28; number of non-improved cases [2, 8]: 21; ratio of improved cases [2, 8]: (57.1%); ratio of non-improved cases [2, 8]: (42.9%); number of improved cases (MP-1 central 2 degrees change value, 24 weeks, positive) [2, 9]: 32; number of non-improved cases [2, 9]: 27; ratio of improved cases [2, 9]: (54.2%); ratio of non-improved cases [2, 9]: (45.8%); number of improved cases (MP-1 central 2 degrees change value, 24 weeks, positive) [2, 10]: 35; number of non-improved cases [2, 10]: 28; ratio of improved cases [2, 10]: (55.6%); ratio of non-improved cases [2, 10]: (44.4%)
